Legend:
Type in all cases: in vivo
monochoria (Mo) [1] = assay: Test Example 1: herbicidal effects by flooded paddy field treatment; set-up: herbicidal effects, Mo (monochoria):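 0-5 growth inhibition grade; 5 = over 90%; 4 = 70-90%; 3 = 50-70%; 2 = 30-50%; 1 = 10-30%; 0 = under 10%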; conditions: dose 100 g active ingredient per 10 ares, examined on the 21st day after treatment, standards of Table 44
In short: (§1)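 Dose: 100 g active ingredient per 10 ares as a diluted wettable powder dripped onto 3 cm floodwater, one day after sowing in puddled paddy soil. Scored by a standard rating scale 21 days later following greenhouse growth.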

barnyard grass (Ec) [2] = assay: Test Example 3: herbicidal effects by foliage treatment in upland field; set-up: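 0-5 growth inhibition grade; 5 = over 90%; 4 = 70-90%; 3 = 50-70%; 2 = 30-50%; 1 = 10-30%; 0 = under 10%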; conditions: dose 100 g active ingredient per 10 ares, examined on the 14th day after treatment
In short: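 Barnyard grass and green foxtail were grown in upland soil for 2 weeks in a greenhouse. A water-diluted wettable powder was sprayed over the foliage at 100 l per 10 ares, giving 100 g active ingredient per 10 ares. Herbicidal effect was scored on day 14 after treatment.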

monochoria (Mo) [3] = assay: Test Example 4: selectivity for a crop plant by flooded paddy field treatment; set-up: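 0-5 growth inhibition grade; 5 = over 90%; 4 = 70-90%; 3 = 50-70%; 2 = 30-50%; 1 = 10-30%; 0 = under 10%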; conditions: monochoria, dose 25 gai/10a, 21st day after treatment, index per Table 44
In short: (§2)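 Water-surface application in a greenhouse pot test: 25 g active ingredient per 10 ares, given as a diluted wettable powder one day after flooding, with visual rating of herbicidal effect three weeks post-treatment.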

barnyard grass (Eo) [4] = assay: as above; set-up: scale not given here; conditions: barnyard grass, dose 25 gai/10a, 21st day after treatment, index per Table 44
In short: as §2

rice (Or) = assay: as above; set-up: scale not given here; conditions: rice transplanted at second leaf stage, dose 25 gai/10a, 21st day after treatment, index per Table 44
In short: as §2

barnyard grass (Eo) [5] = assay: Test Example 1: herbicidal effects by flooded paddy field treatment; set-up: herbicidal effects, Eo (barnyard grass):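 0-5 growth inhibition grade; 5 = over 90%; 4 = 70-90%; 3 = 50-70%; 2 = 30-50%; 1 = 10-30%; 0 = under 10%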; conditions: dose 100 g active ingredient per 10 ares, examined on the 21st day after treatment, standards of Table 44
In short: as §1

barnyard grass (Ec) [6] = assay: Test Example 2: herbicidal effects by upland soil treatment; set-up: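 0-5 growth inhibition grade; 5 = over 90%; 4 = 70-90%; 3 = 50-70%; 2 = 30-50%; 1 = 10-30%; 0 = under 10%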; conditions: dose 100 g active ingredient per 10 ares, examined on the 21st day after treatment
In short: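 Pre-emergence test: barnyard grass and green foxtail sown in upland soil, then soil surface sprayed with wettable-powder formulation at 100 g active ingredient per 10 ares (100 l per 10 ares). Grown in greenhouse; herbicidal effect scored on a rating scale 21 days after treatment.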

| Compound | herbicidal effects, Mo (monochoria) (monochoria (Mo) [1]) | Ec (herbicidal effects, index) (barnyard grass (Ec) [2]) | Mo (herbicidal effect index) (monochoria (Mo) [3]) | Eo (herbicidal effect index) (barnyard grass (Eo) [4]) | Or (herbicidal effect index on crop) (rice (Or)) | herbicidal effects, Eo (barnyard grass) (barnyard grass (Eo) [5]) | Ec (herbicidal effects, index) (barnyard grass (Ec) [6]) |
| --- | --- | --- | --- | --- | --- | --- | --- |
| COCC(c1cncnc1C(C)C)N(C)C(=O)Cc1ccc(Cl)cc1 (racemic) [1-584] | 5 | 4 | 5 | 5 | 1 | 5 | 5 |
| CCc1ncncc1C(N(C)C(=O)Cc1ccc(Cl)cc1)C(C)(C)C (racemic) [1-566] | 5 | 4 | 5 | 5 | 1 | 5 | 5 |
| CSC(C)C(c1cncnc1C(F)(F)F)N(C)C(=O)Cc1ccc(F)cc1 (mixture of isomers) [1-416] | 5 | 5 | 5 | 5 | 1 | 5 | 5 |
| CC(C)C(c1cncnc1C(F)(F)F)N(C)C(=O)Cc1ccc(F)c(F)c1F (racemic) [1-417] | 5 | 4 | 5 | 5 | 1 | 5 | 5 |
| CC(C)C(c1cncnc1C(F)(F)F)N(C)C(=O)Cc1ccc(Cl)s1 (racemic) [2-25] | 5 | 5 | 5 | 5 | 1 | 5 | 5 |
| Cc1ccc(CC(=O)N(C)C(c2cncnc2C#N)C(C)C)cc1 (racemic) [1-507] | 5 | 4 | 5 | 5 | 1 | 5 | 5 |
| C#CCN(C(=O)Cc1ccc(C)cc1)C(CCC)c1cncnc1CC (racemic) [1-609] | 5 | 4 | 5 | 5 | 1 | 5 | 5 |
| C=CCN(C(=O)Cc1ccc(F)cc1)C(c1cncnc1C(F)(F)F)C(C)C (racemic) [1-519] | 5 | 4 | 5 | 5 | 1 | 5 | 5 |
| CC(=O)c1ncncc1C(C(C)C)N(C)C(=O)C(C)c1ccc(Cl)cc1 (mixture of isomers) [1-530] | 5 | 4 | 5 | 5 | 1 | 5 | 5 |
| COCc1ncncc1C(C(C)C)N(C)C(=O)C(C)c1ccc(Cl)cc1 (mixture of isomers) [1-591] | 5 | 4 | 5 | 5 | 1 | 5 | 5 |
| CCOC(=O)c1ncncc1C(C(C)C)N(C)C(=O)C(C)c1ccc(Cl)cc1 (single isomer, unassigned) [1-594] | 5 | 5 | 5 | 5 | 1 | 5 | 5 |
| CCc1ncncc1C(C(C)C)N(C)C(=O)N(C)c1ccc(C)cc1 (racemic) [1-541] | 5 | 4 | 5 | 5 | 1 | 5 | 5 |
| CC(C)C(c1cncnc1C(F)(F)F)N(CC#N)C(=O)Cc1ccc(F)cc1 (racemic) [1-579] | 5 | 4 | 5 | 5 | 1 | 5 | 5 |
| COc1ccccc1C(c1cncnc1C(F)(F)F)N(C)C(=O)Cc1ccc(Cl)cc1 (racemic) [1-490] | 5 | 4 | 5 | 5 | 0 | 5 | 5 |
| CCC(C)C(c1cncnc1C(F)(F)F)N(C)C(=O)Cc1ccc(Cl)cc1F (mixture of isomers) [Compound 1-251] | 5 | 4 | 5 | 5 | 1 | 5 | 5 |
| C#CCN(C(=O)Cc1ccc(F)cc1)C(CCC)c1cncnc1CC (racemic) [1-607] | 5 | 4 | 5 | 5 | 1 | 5 | 4 |
| C#CCN(C(=O)Cc1ccc(Cl)s1)C(c1cncnc1C(F)(F)F)C(C)C (racemic) [2-74] | 5 | 4 | 5 | 5 | 1 | 5 | 5 |
| CCC(C)C(c1cncnc1C(F)(F)F)N(C)C(=O)Cc1ccc(Cl)s1 (mixture of isomers) [2-57] | 5 | 5 | 5 | 5 | 1 | 5 | 5 |
| CC(=O)c1ncncc1C(C(C)C)N(C)C(=O)Cc1ccc(F)cc1 (racemic) [1-527] | 5 | 4 | 5 | 5 | 1 | 5 | 5 |
